Test results from US12391737B2, “Soluble NPY2 receptor agonists” (Boehringer Ingelheim International GmbH, priority 2020, dated 2025).
*1 amine or outer side, *2 acyl side, *3 side chain or, on linkers, in order; H or OH if unused. Where a SMILES comes first, the peptide text is derived from it. Side-chain parts run from the residue outwards. The star is where a group is joined. C18 diacid = O=C(O)CCCCCCCCCCCCCCCCC(=O)*; γGlu = O=C(O)[C@H](CCC(=O)[*:2])N[*:1]; Isovaleryl = CC(C)CC(=O)*; Ahx = NCCCCCC(=O)O

Columns and labels:
Solubility determination = settings: for Sol6: pH 6; for Sol7: pH 7
Outline: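 Sample: TFA-salt peptide at 10 mg/ml target in 0.1 M Na diphosphate, pH 6.4 or 7.0, shaken 2 h RT, filtered, diluted to 1 mg/ml.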

[1] = target: T1, Human Neuropeptide Y2 Receptor (Homo sapiens, UniProt P49146); experiment: Radioligand binding competition assay (RLB); settings: Table 3, 125I-PYY(1-36) competition; read-out: Ki
T1 construct: purchased CHEMICON HTS066M
T1 sequence (P49146 1-381): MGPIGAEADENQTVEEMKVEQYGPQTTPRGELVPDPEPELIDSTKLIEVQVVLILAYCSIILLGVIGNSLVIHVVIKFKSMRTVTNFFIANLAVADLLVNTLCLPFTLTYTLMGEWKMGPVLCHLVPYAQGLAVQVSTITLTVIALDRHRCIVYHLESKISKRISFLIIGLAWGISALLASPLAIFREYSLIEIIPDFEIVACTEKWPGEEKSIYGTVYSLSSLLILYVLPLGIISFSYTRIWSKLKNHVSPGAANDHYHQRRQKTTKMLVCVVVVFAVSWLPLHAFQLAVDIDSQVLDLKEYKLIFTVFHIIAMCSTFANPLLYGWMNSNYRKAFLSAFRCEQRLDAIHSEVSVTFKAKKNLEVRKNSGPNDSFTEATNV
Outline: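 Filtration competition binding on membranes from cells expressing the receptor, 0.5 μg protein/well, in 50 mM HEPES, 5 mM MgCl2, 1 mM CaCl2, pH 7.4, with 0.2% ovalbumin. Incubation ran 2 h at room temperature, followed by GF/C filtration and scintillation counting. IC50 came from nonlinear sigmoidal fits.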

Sol6 (Solubility determination)	Sol7 (Solubility determination)	Ki [1]	SMILES
7.8 mg/mL	>10.0 mg/mL	15.3 nM	CC(C)CC(=O)N[C@@H](C)C(=O)N1CCC[C@H]1C(=O)N[C@@H](CCC(=O)O)C(=O)N[C@@H](CCCCNC(=O)CCCCCNC(=O)CC[C@H](NC(=O)CCCCCCCCCCCCCCCCC(=O)O)C(=O)O)C(=O)N1CCC[C@H]1C(=O)N[C@@H](CCC(=O)O)C(=O)N[C@@H](CCC(=O)O)C(=O)N[C@@H](CC(=O)O)C(=O)N[C@@H](C)C(=O)N[C@H](C(=O)N1CCC[C@H]1C(=O)N[C@@H](CCC(=O)O)C(=O)N[C@@H](CCC(=O)O)C(=O)N1CCC[C@H]1C(=O)N[C@@H](CCC(N)=O)C(=O)N[C@@H](CCCNC(=N)N)C(=O)N[C@@H](Cc1ccc(O)cc1)C(=O)N[C@@H](Cc1ccc(O)cc1)C(=O)N[C@H](C(=O)N[C@@H](CO)C(=O)N[C@@H](CC(C)C)C(=O)N[C@@H](CCCNC(=N)N)C(=O)N[C@@H](Cc1c[nH]cn1)C(=O)N[C@@H](Cc1ccc(O)cc1)C(=O)N[C@@H](Cc1ccc(O)cc1)C(=O)N[C@@H](CC(N)=O)C(=O)N[C@@H](Cc1c[nH]c2ccccc12)C(=O)N[C@@H](CC(C)C)C(=O)N[C@H](C(=O)N[C@@H](CCCNC(=N)N)C(=O)N[C@@H](CCC(N)=O)C(=O)N[C@@H](CCCNC(=N)N)C(=O)N[C@@H](Cc1ccc(O)cc1)C(N)=O)[C@@H](C)O)C(C)C)[C@@H](C)O [Compound 187, N{alpha-4}-(3-methylbutanoyl)-N{epsilon-7}-(6-[(4S)-4-carboxy-4-(17-carboxyheptadecanamido)butanamido]hexanoyl)-[4A,7K,9E,13T,17P,18Q,22V,28Y,30W,31L]-hPYY(4-36)]
3.1 mg/mL	1.2 mg/mL	0.21 nM	CC(C)CC(=O)N[C@@H](C)C(=O)N1CCC[C@H]1C(=O)N[C@@H](CCC(=O)O)C(=O)N[C@@H](CCCCNC(=O)CCCCCNC(=O)CC[C@H](NC(=O)CCCCCCCCCCCCCCCCC(=O)O)C(=O)O)C(=O)N1CCC[C@H]1C(=O)NCC(=O)N[C@@H](C)C(=O)N[C@@H](CC(=O)O)C(=O)N[C@@H](C)C(=O)N[C@@H](CO)C(=O)N1CCC[C@H]1C(=O)N[C@@H](CCC(=O)O)C(=O)N[C@@H](CCCCN)C(=O)N[C@@H](CC(C)C)C(=O)N[C@@H](CCC(N)=O)C(=O)N[C@@H](CCCNC(=N)N)C(=O)N[C@@H](Cc1ccc(O)cc1)C(=O)N[C@@H](Cc1ccc(O)cc1)C(=O)N[C@H](C(=O)N[C@@H](CO)C(=O)N[C@@H](CC(C)C)C(=O)N[C@@H](CCCNC(=N)N)C(=O)N[C@@H](Cc1c[nH]cn1)C(=O)N[C@@H](Cc1ccc(O)cc1)C(=O)N[C@@H](Cc1ccc(O)cc1)C(=O)N[C@@H](Cc1c[nH]cn1)C(=O)N[C@@H](CCCCN)C(=O)N[C@@H](CC(C)C)C(=O)N[C@H](C(=O)N[C@@H](CCCNC(=N)N)C(=O)N[C@@H](CCC(N)=O)C(=O)N[C@@H](CCCNC(=N)N)C(=O)N[C@@H](Cc1ccc(O)cc1)C(N)=O)[C@@H](C)O)C(C)C [Compound 174, N{alpha-4}-(3-methylbutanoyl)-N{epsilon-7}-(6-[(4S)-4-carboxy-4-(17-carboxyheptadecanamido)butanamido]hexanoyl)-[4A,7K,10A,16K,18Q,22V,28Y,29H,30K,31L]-hPYY(4-36)] (Isovaleryl-APEK([Ahx-γGlu-C18 diacid])PGADASPEKLQRYYVSLRHYYHKLTRQRY-NH2)
8.7 mg/mL	9.3 mg/mL	2.75 nM	CC(C)CC(=O)N[C@@H](C)C(=O)N1CCC[C@H]1C(=O)N[C@@H](CCC(=O)O)C(=O)N[C@@H](CCCCNC(=O)CCCCCNC(=O)CC[C@H](NC(=O)CCCCCCCCCCCCCCCCC(=O)O)C(=O)O)C(=O)N1CCC[C@H]1C(=O)N[C@@H](CCC(=O)O)C(=O)N[C@@H](C)C(=O)N[C@@H](CC(=O)O)C(=O)N[C@@H](C)C(=O)N[C@H](C(=O)N1CCC[C@H]1C(=O)N[C@@H](CCC(=O)O)C(=O)N[C@@H](CCC(=O)O)C(=O)N[C@@H](CC(C)C)C(=O)N[C@@H](CCC(N)=O)C(=O)N[C@@H](CCCNC(=N)N)C(=O)N[C@@H](Cc1ccc(O)cc1)C(=O)N[C@@H](Cc1ccc(O)cc1)C(=O)N[C@H](C(=O)N[C@@H](CO)C(=O)N[C@@H](CC(C)C)C(=O)N[C@@H](CCCNC(=N)N)C(=O)N[C@@H](Cc1c[nH]cn1)C(=O)N[C@@H](Cc1ccc(O)cc1)C(=O)N[C@@H](Cc1ccc(O)cc1)C(=O)N[C@@H](CC(N)=O)C(=O)N[C@@H](Cc1c[nH]c2ccccc12)C(=O)N[C@@H](CC(C)C)C(=O)N[C@H](C(=O)N[C@@H](CCCNC(=N)N)C(=O)N[C@@H](CCC(N)=O)C(=O)N[C@@H](CCCNC(=N)N)C(=O)N[C@@H](Cc1ccc(O)cc1)C(N)=O)[C@@H](C)O)C(C)C)[C@@H](C)O [Compound 132, N{alpha-4}-(3-methylbutanoyl)-N{epsilon-7}-(6-[(4S)-4-carboxy-4-(17-carboxyheptadecanamido)butanamido]hexanoyl)-[4A,7K,9E,10A,13T,18Q,22V,28Y,30W,31L]-hPYY(4-36)]

Second part, the compound before the results:

SMILES	Sol6 (Solubility determination)	Sol7 (Solubility determination)	Ki [1]
CC(C)CC(=O)N[C@@H](C)C(=O)N1CCC[C@H]1C(=O)N[C@@H](CCC(=O)O)C(=O)N[C@@H](CCCCNC(=O)CCCCCNC(=O)CC[C@H](NC(=O)CCCCCCCCCCCCCCCCC(=O)O)C(=O)O)C(=O)N1CCC[C@H]1C(=O)N[C@@H](CCC(=O)O)C(=O)N[C@@H](CCC(=O)O)C(=O)N[C@@H](CC(=O)O)C(=O)N[C@@H](C)C(=O)N[C@H](C(=O)N1CCC[C@H]1C(=O)N[C@@H](CCC(=O)O)C(=O)N[C@@H](CCC(=O)O)C(=O)N[C@@H](CC(C)C)C(=O)N[C@@H](CCC(N)=O)C(=O)N[C@@H](CCCNC(=N)N)C(=O)N[C@@H](Cc1ccc(O)cc1)C(=O)N[C@@H](Cc1ccc(O)cc1)C(=O)N[C@H](C(=O)N[C@@H](CCC(=O)O)C(=O)N[C@@H](CC(C)C)C(=O)N[C@@H](CCCNC(=N)N)C(=O)N[C@@H](Cc1c[nH]cn1)C(=O)N[C@@H](Cc1ccc(O)cc1)C(=O)N[C@@H](Cc1ccc(O)cc1)C(=O)N[C@@H](CC(N)=O)C(=O)N[C@@H](Cc1c[nH]c2ccccc12)C(=O)N[C@@H](CC(C)C)C(=O)N[C@H](C(=O)N[C@@H](CCCNC(=N)N)C(=O)N[C@@H](CCC(N)=O)C(=O)N[C@@H](CCCNC(=N)N)C(=O)N[C@@H](Cc1ccc(O)cc1)C(N)=O)[C@@H](C)O)C(C)C)[C@@H](C)O [Compound 110, N{alpha-4}-(3-methylbutanoyl)-N{epsilon-7}-(6-[(4S)-4-carboxy-4-(17-carboxyheptadecanamido)butanamido]hexanoyl)-[4A,7K,9E,13T,18Q,22V,23E,28Y,30W,31L]-hPYY(4-36)]	10.0 mg/mL	>10.0 mg/mL	6.42 nM
CC[C@H](C)[C@H](NC(=O)[C@H](CCC(=O)O)NC(=O)[C@H](CCC(=O)O)NC(=O)[C@@H]1CCCN1C(=O)[C@H](CO)NC(=O)[C@H](C)NC(=O)[C@H](CC(=O)O)NC(=O)[C@H](CCC(=O)O)NC(=O)[C@@H]1CCCN1C(=O)[C@@H]1CCCN1C(=O)[C@H](CCCCNC(=O)CCCCCNC(=O)CC[C@H](NC(=O)CCCCCCCCCCCCCCCCC(=O)O)C(=O)O)NC(=O)[C@H](C)NC(=O)[C@@H]1CCCN1C(=O)[C@H](C)NC(=O)CC(C)C)C(=O)N[C@@H](CCC(N)=O)C(=O)N[C@@H](CCCNC(=N)N)C(=O)N[C@@H](Cc1ccc(O)cc1)C(=O)N[C@@H](Cc1ccc(O)cc1)C(=O)N[C@H](C(=O)N[C@@H](CO)C(=O)N[C@@H](CC(C)C)C(=O)N[C@@H](CCCNC(=N)N)C(=O)N[C@@H](Cc1c[nH]cn1)C(=O)N[C@@H](Cc1ccc(O)cc1)C(=O)N[C@@H](Cc1ccc(O)cc1)C(=O)N[C@@H](CC(N)=O)C(=O)N[C@@H](Cc1c[nH]c2ccccc12)C(=O)N[C@@H](CC(C)C)C(=O)N[C@H](C(=O)N[C@@H](CCCNC(=N)N)C(=O)N[C@@H](CCC(N)=O)C(=O)N[C@@H](CCCNC(=N)N)C(=O)N[C@@H](Cc1ccc(O)cc1)C(N)=O)[C@@H](C)O)C(C)C [Compound 82, N{alpha-4}-(3-methylbutanoyl)-N{epsilon-7}-(6-[(4S)-4-carboxy-4-(17-carboxyheptadecanamido)butanamido]hexanoyl)-[4A,6A,7K,9P,17I,18Q,22V,28Y,30W,31L]-hPYY(4-36)]	0.0 mg/mL	9.0 mg/mL	0.58 nM
CC[C@H](C)[C@H](NC(=O)[C@H](CCC(=O)O)NC(=O)[C@H](CCC(=O)O)NC(=O)[C@@H]1CCCN1C(=O)[C@@H](NC(=O)[C@H](C)NC(=O)[C@H](CC(=O)O)NC(=O)[C@H](CCC(=O)O)NC(=O)[C@H](CCC(=O)O)NC(=O)[C@@H]1CCCN1C(=O)[C@H](CCCCNC(=O)CCCCCNC(=O)CC[C@H](NC(=O)CCCCCCCCCCCCCCCCC(=O)O)C(=O)O)NC(=O)[C@H](CCC(=O)O)NC(=O)[C@@H]1CCCN1C(=O)[C@H](C)NC(=O)CC(C)C)[C@@H](C)O)C(=O)N[C@@H](CCC(N)=O)C(=O)N[C@@H](CCCNC(=N)N)C(=O)N[C@@H](Cc1ccc(O)cc1)C(=O)N[C@@H](Cc1ccc(O)cc1)C(=O)N[C@@H](CC(C)C)C(=O)N[C@@H](CO)C(=O)N[C@@H](CC(C)C)C(=O)N[C@@H](CCCNC(=N)N)C(=O)N[C@@H](Cc1c[nH]cn1)C(=O)N[C@@H](Cc1ccc(O)cc1)C(=O)N[C@@H](Cc1ccc(O)cc1)C(=O)N[C@@H](CC(N)=O)C(=O)N[C@@H](Cc1c[nH]c2ccccc12)C(=O)N[C@@H](CC(C)C)C(=O)N[C@H](C(=O)N[C@@H](CCCNC(=N)N)C(=O)N[C@@H](CCC(N)=O)C(=O)N[C@@H](CCCNC(=N)N)C(=O)N[C@@H](Cc1ccc(O)cc1)C(N)=O)[C@@H](C)O [Compound 97, N{alpha-4}-(3-methylbutanoyl)-N{epsilon-7}-(6-[(4S)-4-carboxy-4-(17-carboxyheptadecanamido)butanamido]hexanoyl)-[4A,7K,9E,13T,17I,18Q,22L,28Y,30W,31L]-hPYY(4-36)]	>10.0 mg/mL	>10.0 mg/mL	4.23 nM
